These results are taken from US20250326725A1, “PI4-Kinase Inhibitors and Methods of Using the Same” (The Board of Trustees of the Leland Stanford Junior …, priority 2019, published 2025).

For test [1], the system named is lung cancer cell lines. Description: PI4P levels in lung cancer cell lines. It counts as cell-based, human. Particulars: panel of lung cancer cell lines. As for the experimental part: (§1) Human lung cancer cells (A549, H1299, H460, H23, H2122, and H3122) were cultured in RPMI 1640 containing 10% FBS. Cells were maintained at 37° C. in an incubator with a humidified atmosphere containing 5% CO2.
(§2) To assess the anti-cancer activity of exemplary PI4K antagonists, a panel of lung cancer cell lines annotated for the presence or absence of PI4K amplifications were treated with PI4K inhibitors (IN-9, TN-10, or compound B) that have greater than 1000-fold selectivity […] PI4KIIIβ over class I and class III PI3K family members. […] IC50 values were even lower with the presence of PI4K amplifications.
(§3) PI4KIIIβ is a target in human cancers, including lung adenocarcinoma. (FIG. 1A). PI4P concentrations in H2122 cells (dots) treated in triplicate (dots) with Compound B or vehicle dimethyl sulfoxide (DMS). (FIG. 1B) Relative densities of PI4-kinase-amplified (red) and -diploid (black) human lung adenocarcinoma cell lines determined by WST-1 assays after 5 days of Compound B treatment. Results expressed relative to the lowest dose, which was set at 100%. (FIG. 1B, right panel) Half maximal inhibitory (IC50) concentrations of compound B determined from FIG. 1B, left panel. (FIG. 1C) Migrated and invaded 1-23 human lung adenocarcinoma cells in Transwell chambers were photographed (images) and counted (bar graphs) after treatment with compound B. Results expressed relative to DMSO-treated cells, which were set at 1.0. (FIG. 1C, right panel). Colonies formed by H2122 human lung cancer cells in soft agarose (FIG. 1D) and on plastic (FIG. 1E) were photographed (images) and counted (bar graphs) after 7 days of treatment with the indicated doses of compound B or vehicle DMSO (0 M). Results expressed relative to DMSO control, which were set at 1.0. PI4-kinase inhibition leads to selective cytotoxicity for cancer cells (FIG. 1F).

Test [2] relates to lung cancer cell lines. Description: Cell proliferation in monolayer culture (WST-1). It counts as cell-based, human. Particulars: panel of lung cancer cell lines. As to the method: as §1, §2, §3
The test system of test [3] is lung cancer cell lines. Description: Migration and invasion in Boyden chambers. The test is classed as cell-based, human. The conditions noted are these: panel of lung cancer cell lines. As to the method:
as §1, §2, §3

Test [4] deals with lung cancer cell lines. Description: Colony formation in soft agar and on plastic. The test is classed as cell-based, human. The conditions noted are these: panel of lung cancer cell lines. As for the experimental part:
as §1, §2, §3

The target in another test is PI3KC2γ (Homo sapiens, UniProt O75747). Particulars: cited from earlier work.
PI3KC2γ, sequence (O75747 whole entry, species assumed): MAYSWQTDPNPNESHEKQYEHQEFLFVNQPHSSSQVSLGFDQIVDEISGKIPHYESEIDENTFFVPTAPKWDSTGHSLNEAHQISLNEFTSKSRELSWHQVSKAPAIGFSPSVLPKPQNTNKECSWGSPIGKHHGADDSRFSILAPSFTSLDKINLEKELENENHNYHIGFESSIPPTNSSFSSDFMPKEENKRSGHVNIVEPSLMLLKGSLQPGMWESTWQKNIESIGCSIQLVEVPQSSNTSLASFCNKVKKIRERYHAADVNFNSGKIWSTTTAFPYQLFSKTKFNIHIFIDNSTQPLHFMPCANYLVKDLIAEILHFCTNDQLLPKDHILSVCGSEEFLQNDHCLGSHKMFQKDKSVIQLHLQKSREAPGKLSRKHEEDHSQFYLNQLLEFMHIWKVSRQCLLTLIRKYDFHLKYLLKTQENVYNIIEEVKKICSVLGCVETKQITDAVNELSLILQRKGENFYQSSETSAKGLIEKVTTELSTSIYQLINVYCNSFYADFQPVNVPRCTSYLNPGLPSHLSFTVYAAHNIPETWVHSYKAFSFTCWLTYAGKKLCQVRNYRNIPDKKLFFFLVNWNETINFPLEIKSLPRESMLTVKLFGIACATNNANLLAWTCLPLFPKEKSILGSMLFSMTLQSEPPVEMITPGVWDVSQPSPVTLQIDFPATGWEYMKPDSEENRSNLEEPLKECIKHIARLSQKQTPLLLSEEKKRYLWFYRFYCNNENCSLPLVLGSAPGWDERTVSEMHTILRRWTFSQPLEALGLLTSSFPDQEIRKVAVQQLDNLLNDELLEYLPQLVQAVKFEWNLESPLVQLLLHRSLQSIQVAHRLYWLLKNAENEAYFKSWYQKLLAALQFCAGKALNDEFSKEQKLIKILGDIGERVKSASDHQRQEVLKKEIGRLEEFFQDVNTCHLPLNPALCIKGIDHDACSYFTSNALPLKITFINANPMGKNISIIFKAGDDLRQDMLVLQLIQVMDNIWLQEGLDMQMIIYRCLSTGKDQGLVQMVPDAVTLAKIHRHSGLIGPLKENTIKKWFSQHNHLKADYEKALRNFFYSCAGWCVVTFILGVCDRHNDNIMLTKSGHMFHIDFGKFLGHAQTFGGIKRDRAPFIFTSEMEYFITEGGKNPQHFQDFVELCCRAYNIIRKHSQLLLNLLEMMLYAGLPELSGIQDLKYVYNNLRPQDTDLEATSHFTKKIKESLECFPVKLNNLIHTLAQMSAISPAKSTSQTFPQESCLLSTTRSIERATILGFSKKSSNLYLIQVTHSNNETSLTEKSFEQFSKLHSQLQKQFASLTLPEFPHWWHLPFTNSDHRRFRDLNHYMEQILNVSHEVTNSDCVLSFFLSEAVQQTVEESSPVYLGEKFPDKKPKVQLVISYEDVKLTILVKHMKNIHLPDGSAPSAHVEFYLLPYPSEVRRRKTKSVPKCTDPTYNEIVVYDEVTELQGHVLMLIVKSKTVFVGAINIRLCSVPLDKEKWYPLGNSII
The target in a further test is PI3Kα (Homo sapiens, UniProt P42336). The conditions noted are these: cited from earlier work.
For another test, the target named is PI4K2α (Homo sapiens, UniProt Q9BTU6). Particulars: at concentrations up to 20 μM; cited from earlier work.
PI4K2α, sequence (Q9BTU6 whole entry): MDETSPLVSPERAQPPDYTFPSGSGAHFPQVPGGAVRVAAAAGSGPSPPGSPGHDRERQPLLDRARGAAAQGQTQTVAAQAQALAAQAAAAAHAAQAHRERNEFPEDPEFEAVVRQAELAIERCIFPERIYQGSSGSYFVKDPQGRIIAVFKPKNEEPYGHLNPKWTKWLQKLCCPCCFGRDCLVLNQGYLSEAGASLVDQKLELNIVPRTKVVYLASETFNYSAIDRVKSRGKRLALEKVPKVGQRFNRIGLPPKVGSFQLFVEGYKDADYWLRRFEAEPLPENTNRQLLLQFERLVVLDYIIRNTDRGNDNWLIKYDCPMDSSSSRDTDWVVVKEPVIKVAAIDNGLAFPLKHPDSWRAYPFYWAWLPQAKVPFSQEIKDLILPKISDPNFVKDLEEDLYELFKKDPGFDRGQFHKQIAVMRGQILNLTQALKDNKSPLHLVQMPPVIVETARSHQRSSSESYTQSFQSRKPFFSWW
The target in a further test is PI4K2β (Homo sapiens, UniProt Q8TCG2). Particulars: at concentrations up to 20 μM; cited from earlier work.
PI4K2β, sequence (Q8TCG2 whole entry): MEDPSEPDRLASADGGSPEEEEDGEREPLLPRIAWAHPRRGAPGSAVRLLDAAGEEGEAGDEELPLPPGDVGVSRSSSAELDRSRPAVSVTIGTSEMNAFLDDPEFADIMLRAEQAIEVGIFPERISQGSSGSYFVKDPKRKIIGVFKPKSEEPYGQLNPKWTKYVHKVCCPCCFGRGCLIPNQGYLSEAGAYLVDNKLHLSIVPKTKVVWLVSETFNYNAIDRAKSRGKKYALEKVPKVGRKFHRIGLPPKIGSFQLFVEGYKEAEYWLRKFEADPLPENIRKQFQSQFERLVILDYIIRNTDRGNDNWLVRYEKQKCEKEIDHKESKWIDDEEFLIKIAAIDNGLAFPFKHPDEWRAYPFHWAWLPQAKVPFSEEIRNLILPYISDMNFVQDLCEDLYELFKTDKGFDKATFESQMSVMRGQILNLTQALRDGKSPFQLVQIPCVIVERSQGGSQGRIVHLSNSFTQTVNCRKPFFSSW
A further test concerns the target PI3Kβ (Homo sapiens, UniProt P42338). The conditions noted are these: at concentrations up to 20 μM; cited from earlier work.

PI3Kβ, sequence (P42338 whole entry, species assumed): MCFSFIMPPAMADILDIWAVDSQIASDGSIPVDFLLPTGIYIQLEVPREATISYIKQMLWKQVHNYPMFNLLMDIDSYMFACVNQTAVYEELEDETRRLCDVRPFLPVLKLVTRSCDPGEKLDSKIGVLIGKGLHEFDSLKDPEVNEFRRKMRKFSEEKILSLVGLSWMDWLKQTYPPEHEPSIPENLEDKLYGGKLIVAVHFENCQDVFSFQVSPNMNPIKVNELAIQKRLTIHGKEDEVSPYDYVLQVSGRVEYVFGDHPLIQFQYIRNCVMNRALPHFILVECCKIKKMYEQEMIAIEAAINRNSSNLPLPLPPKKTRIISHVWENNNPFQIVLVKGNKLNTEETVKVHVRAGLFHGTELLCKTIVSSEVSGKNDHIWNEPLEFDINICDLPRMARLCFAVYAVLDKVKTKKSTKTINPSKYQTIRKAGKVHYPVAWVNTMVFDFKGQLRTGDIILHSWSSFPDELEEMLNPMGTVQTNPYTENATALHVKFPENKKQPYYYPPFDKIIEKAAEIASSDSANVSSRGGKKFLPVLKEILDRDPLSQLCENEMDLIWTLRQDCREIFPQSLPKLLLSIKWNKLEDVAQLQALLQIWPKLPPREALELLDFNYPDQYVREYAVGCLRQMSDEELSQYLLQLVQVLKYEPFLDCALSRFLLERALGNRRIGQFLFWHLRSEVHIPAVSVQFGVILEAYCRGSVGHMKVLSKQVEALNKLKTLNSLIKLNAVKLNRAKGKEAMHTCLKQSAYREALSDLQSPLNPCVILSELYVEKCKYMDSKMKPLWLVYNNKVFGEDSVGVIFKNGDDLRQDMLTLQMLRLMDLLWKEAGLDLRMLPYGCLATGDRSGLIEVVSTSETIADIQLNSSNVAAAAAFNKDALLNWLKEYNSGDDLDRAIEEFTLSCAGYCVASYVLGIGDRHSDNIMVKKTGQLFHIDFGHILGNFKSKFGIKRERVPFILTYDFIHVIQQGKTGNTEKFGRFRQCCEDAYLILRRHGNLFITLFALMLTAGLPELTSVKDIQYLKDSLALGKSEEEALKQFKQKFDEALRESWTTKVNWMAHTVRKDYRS
PI3Kβ, sequence (P27986 whole entry partner, species assumed): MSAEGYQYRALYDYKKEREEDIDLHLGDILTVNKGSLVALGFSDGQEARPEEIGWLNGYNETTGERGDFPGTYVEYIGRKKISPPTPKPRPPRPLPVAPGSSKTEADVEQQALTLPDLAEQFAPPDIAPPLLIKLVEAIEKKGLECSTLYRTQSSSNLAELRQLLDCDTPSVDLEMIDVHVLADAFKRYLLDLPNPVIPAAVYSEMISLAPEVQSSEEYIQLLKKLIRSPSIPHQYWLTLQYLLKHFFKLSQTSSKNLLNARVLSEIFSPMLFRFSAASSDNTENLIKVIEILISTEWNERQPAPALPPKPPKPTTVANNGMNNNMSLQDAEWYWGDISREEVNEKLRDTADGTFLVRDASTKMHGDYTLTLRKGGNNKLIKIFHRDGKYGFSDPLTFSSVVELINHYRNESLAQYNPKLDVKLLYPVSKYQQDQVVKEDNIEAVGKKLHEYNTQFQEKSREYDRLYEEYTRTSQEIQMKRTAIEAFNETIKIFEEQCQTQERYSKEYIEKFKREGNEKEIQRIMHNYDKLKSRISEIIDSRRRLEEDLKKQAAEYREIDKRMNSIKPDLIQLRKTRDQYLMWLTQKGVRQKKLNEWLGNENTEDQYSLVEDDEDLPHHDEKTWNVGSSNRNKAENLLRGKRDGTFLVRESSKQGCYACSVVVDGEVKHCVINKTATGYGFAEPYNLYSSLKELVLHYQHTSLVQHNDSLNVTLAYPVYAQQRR

As for `COc1ccc(-c2sc(NC(=O)C(C)(C)C)nc2C)cc1S(=O)(=O)Nc1ccc(O)cc1` [PI4KIIIbeta-IN-10], in the test on lung cancer cell lines [1], the PI4P levels entry is “decreased PI4P levels in a dose-dependent fashion”. In the test on lung cancer cell lines [2], the “cell proliferation in monolayer culture” value was “reduced cell proliferation in monolayer culture”. For the same molecule, the “migration and invasion in Boyden chambers” value in the test with lung cancer cell lines [3] is reported as “reduced”. Besides, the “colony formation in soft agar and on plastic” value in the test on lung cancer cell lines [4] is reported as “reduced”. The IC50 on PI3KC2γ was about 1 µM; at PI3Kα it was about 10 µM. The “inhibition of PI4K2α” value at PI4K2α is on record as under 20%. The “inhibition of PI4K2β” value on PI4K2β is reported as under 20%. Also, the “inhibition of PI3Kβ” value at PI3Kβ is under 20%.

Usually IC50 stands for the concentration that inhibits the measured activity by half.
